In one data set the target is BTK (Homo sapiens, UniProt Q06187). In words: BTK kinase assay: time resolved-FRET (HTRF) assay. It counts as biochemical. The arrangement: recombinant full-length human BTK kinase with a (His)6 tag; (His)6; purchased Invitrogen Corporation, Carlsbad, Calif. The settings on record: 10 nM BTK, 60 μM ATP, 1 μM substrate. The method, then:
Activity of compounds was routinely confirmed using a secondary assay as described herein. The secondary assay was a time resolved-FRET kinase assay. Test compound are diluted to desired concentrations in kinase reaction buffer and briefly incubated with BTK kinase (as described above; Invitrogen). The reaction is initiated by the addition of ATP and enzyme substrate, HTRF® KinEASE™-TK Substrate-biotin (Cisbio US, Bedford, Mass.). The composition of the reaction (10 μl) was: 1% v/v DMSO, 10 nM BTK, 60 μM ATP, and 1 μM substrate. After incubation at room temperature for 60 min, the enzyme reaction is stopped by EDTA-containing buffer, which also contains europium-labeled (Eu^3+-Cryptate) anti-phosphotyrosine antibody (Cisbio) and Streptavidin-XL665 (Cisbio). The europium-labeled antibody generates a time-resolved FRET signal with the Stepavidin-XL665, which binds to the biotinylated TK substrate through the streptavidin conjugate when the substrate is phosphorylated. After one hour incubation at room temperature, fluoresence was measured with excitation of 320 nm and dual emission of 615 and 665 nm on an EnVision microplate reader. Signal is expressed in terms of a TR-FRET ratio (665:615).
(§1) IC50 values are determined using GraphPad Prism 5 software. The data were entered as an X-Y plot into the software as percent inhibition for each concentration of the drug. The concentration values of the drug were log transformed and the nonlinear regression was carried out using the “sigmoidal dose-response (variable slope)” option within the GraphPad software to model the data and calculate IC50 values. The IC50 values reported are the concentration of drug at which 50% inhibition was reached.
(§2) Activity (IC50) was determined in the BTK assays describe herein below, i.e. either the ADP generation assay and/or the time-resolved FRET assay, and the data are shown in Table III. The compound number corresponds to the compound numbers used in Table I. In the table below, “ADP Assay” refers to the assay which measures production of ADP resulting from use of ATP by the kinase; and “HTRF Assay” refers to the time resolved-FRET kinase assay described in the examples. Multiple values in a given column indicate the results of more than one assay for the given compound. Representative data of the type used to determine the IC50 values for the ADP assay in Table III are shown in FIG. 8 for compounds 3, 4, and 5.

The target in data set [1] is T1, recombinant full-length human BTK kinase (Homo sapiens, UniProt Q06187).
T1 construct: recombinant full-length human BTK kinase with a (His)6 tag; (His)6; purchased Invitrogen Corporation, Carlsbad, Calif
T1 sequence (Q06187 whole entry): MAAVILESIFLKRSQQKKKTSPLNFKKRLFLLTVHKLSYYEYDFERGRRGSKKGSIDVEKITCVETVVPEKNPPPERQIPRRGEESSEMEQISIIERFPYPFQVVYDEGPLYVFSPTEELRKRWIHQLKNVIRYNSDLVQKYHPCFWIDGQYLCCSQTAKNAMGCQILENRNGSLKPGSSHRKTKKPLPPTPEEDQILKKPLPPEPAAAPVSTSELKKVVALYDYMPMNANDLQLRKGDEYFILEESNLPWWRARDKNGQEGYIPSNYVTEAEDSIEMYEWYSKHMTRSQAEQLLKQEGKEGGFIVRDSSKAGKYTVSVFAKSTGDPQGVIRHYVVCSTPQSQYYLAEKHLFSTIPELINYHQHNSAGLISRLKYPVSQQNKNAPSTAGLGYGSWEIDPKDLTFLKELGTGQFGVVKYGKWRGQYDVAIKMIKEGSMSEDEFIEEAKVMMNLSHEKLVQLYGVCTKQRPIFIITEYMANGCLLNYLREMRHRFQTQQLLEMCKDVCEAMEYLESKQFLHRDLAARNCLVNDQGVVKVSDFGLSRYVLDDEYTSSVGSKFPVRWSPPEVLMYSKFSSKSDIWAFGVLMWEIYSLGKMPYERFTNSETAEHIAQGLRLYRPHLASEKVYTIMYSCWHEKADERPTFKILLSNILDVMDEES
Put plainly: BTK kinase assay: ADP generation assay (ADP-Glo). Format: biochemical. The settings on record: 60 nM BTK, MBP substrate, 60 min. Here is the method:
The primary assay for compound inhibitory activity was the ADP generation assay described herein. Test compounds were diluted to desired concentrations in kinase reaction buffer and briefly incubated with recombinant full-length human BTK kinase with a (His)6 tag (81.3 kDa; Invitrogen Corporation, Carlsbad, Calif.). The assay as described is based on volumes used in a standard 384 well format using solid, white-wall plates. The reaction was subsequently initiated by the addition of ATP and myelin basic protein (MBP) substrate (Millipore Corporation, Waltham, Mass.). Composition of the assay reaction mixture ([…]) was: 5% v/v DMSO, 60 nM BTK, 1.6 µM ATP, and 20 µM MBP substrate. After incubation at room temperature for 60 min, […] (Promega Corporation, Madison, Wis.) was added to each well and incubated for an additional 40 minutes. The reagent stopped the kinase reaction and depleted the unconsumed ATP. Kinase Detection reagent ([…]; Promega Corporation) was then added to each well. The Kinase Detection reagent comprises reagents to convert ADP to ATP and provide luciferase and luciferin to detect ATP. Luminescence was measured on an EnVision microplate reader (PerkinElmer). The amount of luminescence from each reaction is directly correlated with BTK kinase activity. Percent inhibition and IC50 values were calculated by comparing enzyme activity in drug-treated wells to the appropriate controls.
as §1, §2
(ADP-Glo first removes unused ATP, then detects ADP through luciferase.)

A short description of the next data set: Pharmacokinetics in rat. It counts as in vivo, male Sprague Dawley rats. The settings on record: for AUC(0-t): read-out: AUC0-t. The method, then:
The pharmacokinetic behavior of a representative disclosed compound, compound 3 (N-(3-(6-((3-morpholinophenyl)amino)-1H-pyrazolo[3,4-d]pyrimidin-4-yl)phenyl)acrylamide), which corresponds to compound 3 in Table I, was also evaluated in rat. A study was conducted using three male Sprague Dawley rats in each group as shown below:
The solution formulations were prepared as follows: (A) intravenous route (“i.v.”): a weighed quantity of 3 (10.45 mg) was transferred into a 10 mL clean glass vial. To this 0.231 mL of ethanol (4.5%) was added, vortexed and sonicated. To this 1.028 mL of propylene glycol (20%) was added, vortexed and sonicated. 1.543 mL of PEG400 (30%) was added, vortexed and sonicated. Finally 2.340 mL of water (45.5%) was added gradually, vortexed and sonicated to make a solution of 2 mg/mL concentration. The final solution was filtered using syringe filter (0.22 μm).; and (B) a weighed quantity of SC-1344 (27.43 mg) was transferred into a 10 mL clean glass vial. To this 0.304 mL of ethanol (4.5%) was added, vortexed and sonicated. To this 1.350 mL of propylene glycol (20%) was added, vortexed and sonicated. 2.024 mL of PEG400 (30%) was added, vortexed and sonicated. Finally 3.070 mL of water (45.5%) was added gradually, vortexed and sonicated to make a solution of 4 mg/mL concentration. The final solution was filtered using syringe filter (0.22 μm).
Bioanalysis was performed using fit-for-purpose LC-MS/MS method for the quantification of 3 in rat plasma samples. The calibration curve (CC) for the method consisted of nine non-zero calibration standards along with a double blank and zero standard samples. Study samples were analyzed along with two sets of quality control samples (6 QC samples; low, medium and high QC samples in triplicate). Briefly, the LC-MS/MS method used the following parameters: a) gradient mobile phase (Pump A: 0.1% Formic acid in water; Pump B: 100% methanol); b) XBridge C8, 50×4.6 mm, 3.5μ (Waters) column; c) 10 μL injection volume; d) 1.00 mL/min flow rate; e) 3.50 min run time; f) 10° C. sample cooler temperature; and g) 40° C. column oven temperature. The sample calibration curve was 1.02-1023 ng/mL, with an internal standard (telmisartan) at 0.2 μg/mL. Briefly, biological samples were prepared as follows: 50 μL of sample was mixed with 150 μL of internal standard, then mixture was vortexed for 5 min at 800 rpm, followed by centrifugation at 4000 rpm for 5 min; 150 μL of the sample supernatant was transferred into a separate tube and diluted with 75 μL of methanol: water (1:1), followed by injection into LC/MS/MS.
Plasma pharmacokinetic parameters were calculated using the non-compartmental analysis tool of Phoenix software (Version 6.3) and were determined from individual animals in each group. The area under the plasma concentration-time curve (AUC0-t and AUCinf), elimination half-life (T1/2), clearance (CL), volume of distribution (Vss) and Mean residence time (MRT) were calculated from intravenous group. The peak plasma concentration (Cmax), time to achieve peak plasma concentration (Tmax), AUC0-t and AUCinf, and absolute oral bioavailability (F) were calculated from the oral group.
The mean plasma concentration-time profiles are shown in FIGS. 10 and 11, i.e. the mean concentration values of the individual values obtained from each rat in the study group at the indicated time points.

Data set [2] in a line: Microsomal stability, positive control assays. Format: in vitro ADME. The following applies: microsomes used in the study. The method, then:
Data were also obtained for the stability of Compound 3 when incubated with a microsomal preparation. Drug metabolism can occur, at least in part, in cellular microsomes, and thus the assay assesses the stability of drug to metabolic modification. The concentration of compound 3 was 1 μM in the assay system and the indicated microsomes were present at 0.5 mg total protein per milliliter. The concentration of intact drug was determined at the indicated timepoints using a LC-MS/MS assay. The enzyme activity of the microsomes used in this study were assessed using a positive control, testosterone.

[3] abbreviates: male, Sprague Dawley, plasma, IV 5 mg/kg, solution.

pIC50: −log10 of the molar value. “And” between values parts separate entries of the source, which are not always exact repeats. Equal entries are not always repeated. Where two headings read alike, the source gives them in different places. Bounds are passed on as bounds.

As a reminder, the pIC50 is the IC50 on a negative log10 scale, so that one unit is a factor of ten. Usually clearance stands for the rate of elimination divided by the concentration. A higher clearance goes with efficient removal. By half-life is commonly meant the time needed for the level to fall by half in the phase considered. Low readings indicate fast loss, high ones slow loss. As a reminder, the bioavailability is the share of a dose that reaches the circulation, judged against a reference dose that is usually intravenous. The Cmax is the maximum level reached in the sampled fluid or tissue.

Chain of BTK (Q06187 whole entry): as above

With `C=CC(=O)Nc1cccc(-c2nc(Nc3cccc(N4CCN(C)CC4)c3)ncc2Cl)c1` [Compound 1, N-(3-(5-chloro-2-((3-(4-methylpiperazin-1-yl)phenyl)amino)pyrimidin-4-yl)phenyl)acrylamide], the pIC50 on BTK is 7.85; in data set [1] it was 7.54 and 7.85.

As for `C=CC(=O)Nc1cccc(-c2nc(Nc3cccc(N4CCOCC4)c3)ncc2Cl)c1` [Compound 2, N-(3-(5-chloro-2-((3-morpholinophenyl)amino)pyrimidin-4-yl)phenyl)acrylamide], the pIC50 in data set [1] was 7.15.

Consider `C=CC(=O)Nc1cccc(-c2nc(Nc3cccc(N4CCN(C)CC4)c3)nc3[nH]ncc23)c1` [Compound 4, N-(3-(6-((3-(4-methylpiperazin-1-yl)phenyl)amino)-1H-pyrazolo[3,4-d]pyrimidin-4-yl)phenyl)acrylamide], for which the pIC50 at BTK was 8.04; in data set [1], 8.05.

With `C=CC(=O)Nc1cccc(-c2nc(Nc3cccc(N4CCOCC4)c3)nc3[nH]nc(Cl)c23)c1` [Compound 5, N-(3-(3-chloro-6-((3-morpholinophenyl)amino)-1H-pyrazolo[3,4-d]pyrimidin-4-yl)phenyl)acrylamide], the figures for the pIC50 (on BTK; in data set [1]) were 6.76 and 7.02, respectively.

Turning to `C=CC(=O)Nc1cc(-c2nc(Nc3cccc(N4CCOCC4)c3)nc3[nH]nc(Cl)c23)ccc1Cl` [Compound 6, N-(2-chloro-5-(3-chloro-6-((3-morpholinophenyl)amino)-1H-pyrazolo[3,4-d]pyrimidin-4-yl)phenyl)acrylamide], the values for the pIC50 (on BTK; in data set [1]) were below 4.00 and at most 4.00, respectively.

Take `C=CC(=O)Nc1cccc(-c2nc(Nc3cccc(N4CCOCC4)c3)nc3[nH]cc(Cl)c23)c1` [Compound 7, N-(3-(5-chloro-2-((3-morpholinophenyl)amino)-7H-pyrrolo[2,3-d]pyrimidin-4-yl)phenyl)acrylamide]: the pIC50 on BTK is 6.76; in data set [1] it was 7.02.

As to `C=CC(=O)Nc1cccc(-c2nc(Nc3cccc(N4CCOCC4)c3)nc3[nH]ccc23)c1` [Compound 8, N-(3-(2-((3-morpholinophenyl)amino)-7H-pyrrolo[2,3-d]pyrimidin-4-yl)phenyl)acrylamide], the pIC50 at BTK was below 5.00.

For `C=CC(=O)Nc1cccc(-c2nc(Nc3cccc(N4CCNCC4)c3)nc3[nH]ncc23)c1` [Compound 9, N-(3-(6-((3-(piperazin-1-yl)phenyl)amino)-1H-pyrazolo[3,4-d]pyrimidin-4-yl)phenyl)acrylamide], the pIC50 on BTK was 7.85.

Take `C=CC(=O)Nc1cccc(-c2nc(Nc3cccc(N4CCNCC4)c3)ncc2Cl)c1` [Compound 10, N-(3-(5-chloro-2-((3-(piperazin-1-yl)phenyl)amino)pyrimidin-4-yl)phenyl)acrylamide]: on BTK, the pIC50 is 7.15.

For `C=CC(=O)Nc1cccc(-c2nc(Nc3cccc(N4CCOCC4)c3)nc3[nH]ncc23)c1` [SC-1344, N-(3-(6-((3-morpholinophenyl)amino)-1H-pyrazolo[3,4-d]pyrimidin-4-yl)phenyl)acrylamide], the “Vss relative to total body water normalized to body weight (0.7 L/kg)” value in “Pharmacokinetics in rat” (IV 5 mg/kg) is listed as “approximately 11 fold”. In the data set “Pharmacokinetics in rat” (setting [3]), the clearance came to 79.7 mL/min/kg, the half-life was 163 min and the AUC(0-t) worked out at 1060 ng·h/mL. The Vd in the data set “Pharmacokinetics in rat” (male, Sprague Dawley, plasma, IV 5 mg/kg, solution, read-out: Vss) is 7.91 L/kg. Also, the bioavailability in the data set “Pharmacokinetics in rat” (male, Sprague Dawley, plasma, PO 20 mg/kg vs IV 5 mg/kg, AUC0-t and nominal doses used, read-out: F (absolute oral bioavailability)) came to 2.44%. The AUC(0-t) in “Pharmacokinetics in rat” (male, Sprague Dawley, plasma, PO 20 mg/kg, solution) was 104 ng·h/mL. Moreover, the Cmax in the data set “Pharmacokinetics in rat” (male, Sprague Dawley, plasma, PO 20 mg/kg, solution, read-out: Cmax) was determined as 23.1 ng/mL.

As for `C[C@]12CC[C@H]3[C@@H](CCC4=CC(=O)CC[C@@]43C)[C@@H]1CC[C@@H]2O` [testosterone], the “Disappearance of positive control in microsomes” value in data set [2] is reported as “rapid disappearance”.

The values are drawn from patent publication US20150252048A1, “SUBSTITUTED N-(3-PYRIMIDIN-4-YL)PHENYL)ACRYLAMIDE ANALOGS AS TYROSINE RECEPTOR KINASE BTK INHIBITORS” (UNIVERSITY OF UTAH RESEARCH FOUNDATION, priority 2012, published 2015).
